From patent publication US20250326744A1, “PIPERAZINE DERIVATIVE OR SALT THEREOF, AND PHARMACEUTICAL COMPOSITION” (priority 2022, published 2025)
Counter-ions that a name gives are not always drawn.

Experiments:
mexB (PA) strain = assay: Combinational effect with antibacterial agent against Pseudomonas aeruginosa (Test Examples 2 and 4): mexB (PA) strain with LVFX, TC or AZT at 1/4 MIC, EC99; type: cell-based; details: Table 52, Test Example 2, 16 to 20 hours culture, OD595; for EC99, mexB (PA), AZT: combined with AZT at 1/4 MIC; for EC99, mexB (PA), LVFX: combined with LVFX at 1/4 MIC; for EC99, mexB (PA), TC: combined with TC at 1/4 MIC
How it was run: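 P. aeruginosa mexB (PA) strain, lacking MexCD-OprJ, MexEF-OprN and MexXY and overexpressing MexAB-OprM, grown 16–20 h in CAMHB (10^4–5 CFU/well) with LVFX, TC or AZT at ¼ MIC plus test compound at 0–800 μM. Growth read as OD595; EC99 is the lowest compound concentration giving ≥99% growth inhibition.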

S-3769 strain = assay: Combinational effect with antibacterial agent against Pseudomonas aeruginosa (Test Examples 2 and 4): S-3769 strain with AMK or GM at 1/4 MIC, EC99; type: cell-based; details: Table 52, Test Example 2, 16 to 20 hours culture, OD595; for EC99, S-3769 strain, AMK: combined with AMK at 1/4 MIC; for EC99, S-3769 strain, GM: combined with GM at 1/4 MIC
How it was run: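 P. aeruginosa S-3769 (clinical isolate, MexY overexpressed) grown 16–20 h in CAMHB, 10^4 to 5 CFU/well, with AMK or GM at ¼ MIC plus test compound 0–800 μM. Growth read as OD595; EC99 is the lowest compound concentration giving ≥99% growth inhibition.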

Q: Which “EC99, mexB (PA), AZT” value (mexB (PA) strain) does the source give for `CCOc1cccc(F)c1CN1CCN(C(=O)[C@H](N)C2CCN(CCc3cc(Cl)ccc3C3CC3)CC2)CC1` [Example 78, Hydrobromide of (R)-2-amino-2-(1-(5-chloro-2-cyclopropylphenethyl)piperidin-4-yl)-1-(4-(2-ethoxy-6-fluorobenzyl)piperazin-1-yl)ethan-1-one] here?
A: B (25 μM<EC99≤100 μM)

Q: What about the “EC99, mexB (PA), LVFX” value (mexB (PA) strain) of the same compound?
A: C (100 μM<EC99)

Q: What about the “EC99, mexB (PA), TC” value (mexB (PA) strain) of the same compound?
A: B (25 μM<EC99≤100 μM)

Q: What about the “EC99, S-3769 strain, AMK” value (S-3769 strain) of the same compound?
A: S (EC99≤12.5 μM)

Q: What about the “EC99, S-3769 strain, GM” value (S-3769 strain) of the same compound?
A: S (EC99≤12.5 μM)

Q: With `CCOc1cccc(F)c1CN1CCN(C(=O)[C@H](N)C2CCN(CCc3c(-c4ccccc4)ccc(Cl)c3F)CC2)CC1` [Example 79, Hydrobromide of (R)-2-amino-2-(1-(2-(4-chloro-3-fluoro-[1,1′-biphenyl]-2-yl)ethyl)piperidin-4-yl)-1-(4-(2-ethoxy-6-fluorobenzyl)piperazin-1-yl)ethan-1-one] as the compound, how does the “EC99, mexB (PA), AZT” value (mexB (PA) strain) read?
A: B (25 μM<EC99≤100 μM)

Q: What about the “EC99, mexB (PA), LVFX” value (mexB (PA) strain) of the same compound?
A: B (25 μM<EC99≤100 μM)

Q: And the “EC99, mexB (PA), TC” value (mexB (PA) strain)?
A: B (25 μM<EC99≤100 μM)

Q: What about the “EC99, S-3769 strain, AMK” value (S-3769 strain) of the same compound?
A: S (EC99≤12.5 μM)

Q: What about the “EC99, S-3769 strain, GM” value (S-3769 strain) of the same compound?
A: A (12.5 μM<EC99≤25 μM)

Q: `CCOc1cccc(F)c1CN1CCN(C(=O)[C@H](N)C2CCN(CCc3cc(C)ccc3-c3ccccc3)CC2)CC1` [Example 81, Hydrobromide of (R)-2-amino-1-(4-(2-ethoxy-6-fluorobenzyl)piperazin-1-yl)-2-(1-(2-(4-methyl-[1,1′-biphenyl]-2-yl)ethyl)piperidin-4-yl)ethan-1-one] was tested. Which “EC99, mexB (PA), AZT” value (mexB (PA) strain) did it give?
A: B (25 μM<EC99≤100 μM)

Q: What about the “EC99, mexB (PA), LVFX” value (mexB (PA) strain) of the same compound?
A: B (25 μM<EC99≤100 μM)

Q: What about the “EC99, mexB (PA), TC” value (mexB (PA) strain) of the same compound?
A: B (25 μM<EC99≤100 μM)

Q: And the “EC99, S-3769 strain, AMK” value (S-3769 strain)?
A: S (EC99≤12.5 μM)

Q: What about the “EC99, S-3769 strain, GM” value (S-3769 strain) of the same compound?
A: S (EC99≤12.5 μM)

Q: What does the source list for `CCOc1cccc(F)c1CN1CCN(C(=O)[C@H](N)C2CCN(CCc3cc(C(F)(F)F)ccc3-c3ccccc3)CC2)CC1` [Example 83, Hydrobromide of (R)-2-amino-1-(4-(2-ethoxy-6-fluorobenzyl)piperazin-1-yl)-2-(1-(2-(4-(trifuluoromethyl)-[1,1′-biphenyl]-2-yl)ethyl)piperidin-4-yl) ethan-1-one]?
A: EC99, mexB (PA), AZT (mexB (PA) strain): B (25 μM<EC99≤100 μM); EC99, mexB (PA), LVFX (mexB (PA) strain): B (25 μM<EC99≤100 μM); EC99, mexB (PA), TC (mexB (PA) strain): B (25 μM<EC99≤100 μM); EC99, S-3769 strain, AMK (S-3769 strain): B (25 μM<EC99≤100 μM); EC99, S-3769 strain, GM (S-3769 strain): B (25 μM<EC99≤100 μM)

Q: How did the “EC99, mexB (PA), AZT” value (mexB (PA) strain) turn out when `CCOc1cccc(F)c1CN1CCN(C(=O)[C@H](N)C2CCN(CCc3cc(OC(F)(F)F)ccc3-c3ccccc3Cl)CC2)CC1` [Example 86, Hydrobromide of (R)-2-amino-2-(1-(2-(2′-chloro-4-(trifluoromethoxy)-[1,1′-biphenyl]-2-yl)ethyl)piperidin-4-yl)-1-(4-(2-ethoxy-6-fluorobenzyl)piperazin-1-yl)ethan-1-one] was run?
A: B (25 μM<EC99≤100 μM)

Q: What about the “EC99, mexB (PA), LVFX” value (mexB (PA) strain) of the same compound?
A: B (25 μM<EC99≤100 μM)

Q: What about the “EC99, mexB (PA), TC” value (mexB (PA) strain) of the same compound?
A: B (25 μM<EC99≤100 μM)

Q: And the “EC99, S-3769 strain, AMK” value (S-3769 strain)?
A: B (25 μM<EC99≤100 μM)

Q: What about the “EC99, S-3769 strain, GM” value (S-3769 strain) of the same compound?
A: B (25 μM<EC99≤100 μM)

Q: Which “EC99, mexB (PA), AZT” value (mexB (PA) strain) does the source give for `CCOc1cccc(F)c1CN1CCN(C(=O)[C@H](N)C2CCN(CCc3cc(Cl)ccc3C3=CCCNC3)CC2)CC1` [Example 88, Hydrobromide of (R)-2-amino-2-(1-(5-chloro-2-(1,2,5,6-tetrahydropyridin-3-yl)phenethyl)piperidin-4-yl)-1-(4-(2-ethoxy-6-fluorobenzyl)piperazin-1-yl) ethan-1-one] here?
A: C (100 μM<EC99)

Q: And the “EC99, mexB (PA), LVFX” value (mexB (PA) strain)?
A: C (100 μM<EC99)

Q: What about the “EC99, mexB (PA), TC” value (mexB (PA) strain) of the same compound?
A: B (25 μM<EC99≤100 μM)

Q: And the “EC99, S-3769 strain, AMK” value (S-3769 strain)?
A: S (EC99≤12.5 μM)

Q: What about the “EC99, S-3769 strain, GM” value (S-3769 strain) of the same compound?
A: S (EC99≤12.5 μM)

Q: Which results are given for `CCOc1cccc(F)c1CN1CCN(C(=O)[C@H](N)C2CCN(CCc3cc(Cl)ccc3-c3ccc(F)cc3Cl)CC2)CC1` [Example 90, Hydrobromide of (R)-2-amino-2-(1-(2-(2′,4-dichloro-4′-fluoro-[1,1′-biphenyl]-2-yl)ethyl)piperidin-4-yl)-1-(4-(2-ethoxy-6-fluorobenzyl)piperazin-1-yl) ethan-1-one]?
A: EC99, mexB (PA), AZT (mexB (PA) strain): B (25 μM<EC99≤100 μM); EC99, mexB (PA), LVFX (mexB (PA) strain): B (25 μM<EC99≤100 μM); EC99, mexB (PA), TC (mexB (PA) strain): A (12.5 μM<EC99≤25 μM); EC99, S-3769 strain, AMK (S-3769 strain): A (12.5 μM<EC99≤25 μM); EC99, S-3769 strain, GM (S-3769 strain): B (25 μM<EC99≤100 μM)

Q: With `CCOc1cccc(F)c1CN1CCN(C(=O)[C@H](N)C2CCN(CCc3cc(Cl)ccc3-c3cnccc3Cl)CC2)CC1` [Example 91, Hydrobromide of (R)-2-amino-2-(1-(5-chloro-2-(4-chloropyridin-3-yl)phenethyl)piperidin-4-yl)-1-(4-(2-ethoxy-6-fluorobenzyl)piperazin-1-yl) ethan-1-one] as the compound, how does the “EC99, mexB (PA), AZT” value (mexB (PA) strain) read?
A: B (25 μM<EC99≤100 μM)

Q: And the “EC99, mexB (PA), LVFX” value (mexB (PA) strain)?
A: C (100 μM<EC99)

Q: And the “EC99, mexB (PA), TC” value (mexB (PA) strain)?
A: B (25 μM<EC99≤100 μM)

Q: And the “EC99, S-3769 strain, AMK” value (S-3769 strain)?
A: B (25 μM<EC99≤100 μM)

Q: And the “EC99, S-3769 strain, GM” value (S-3769 strain)?
A: B (25 μM<EC99≤100 μM)

Q: Which results are given for `CCOc1cccc(F)c1CN1CCN(C(=O)[C@H](N)C2CCN(CCc3cc(Cl)ccc3-c3cnccc3N)CC2)CC1` [Example 93, (R)-2-amino-2-(1-(2-(4-aminopyridin-3-yl)-5-chlorophenethyl)piperidin-4-yl)-1-(4-(2-ethoxy-6-fluorobenzyl)piperazin-1-yl)ethan-1-one]?
A: EC99, mexB (PA), AZT (mexB (PA) strain): S (EC99≤12.5 μM); EC99, mexB (PA), LVFX (mexB (PA) strain): S (EC99≤12.5 μM); EC99, mexB (PA), TC (mexB (PA) strain): S (EC99≤12.5 μM); EC99, S-3769 strain, AMK (S-3769 strain): B (25 μM<EC99≤100 μM); EC99, S-3769 strain, GM (S-3769 strain): B (25 μM<EC99≤100 μM)

Q: How did the “EC99, mexB (PA), AZT” value (mexB (PA) strain) turn out when `CCOc1ccc(O)c(F)c1CN1CCN(C(=O)[C@H](N)C2CCN(CCc3ccccc3)CC2)CC1` [Example 94, hydrobromide of (R)-2-amino-1-(4-(6-ethoxy-2-fluoro-3-hydroxybenzyl)piperazin-1-yl)-2-(1-phenethylpiperidin-4-yl)ethan-1-one] was run?
A: C (100 μM<EC99)

Q: And the “EC99, mexB (PA), LVFX” value (mexB (PA) strain)?
A: C (100 μM<EC99)

Q: And the “EC99, mexB (PA), TC” value (mexB (PA) strain)?
A: C (100 μM<EC99)

Q: And the “EC99, S-3769 strain, AMK” value (S-3769 strain)?
A: B (25 μM<EC99≤100 μM)

Q: And the “EC99, S-3769 strain, GM” value (S-3769 strain)?
A: B (25 μM<EC99≤100 μM)

Q: `CCOc1cccc(F)c1CN1CCN(C(=O)[C@H](N)C2CCN(CCc3cc(Cl)ccc3-c3ccccc3N)CC2)CC1` [Example 97, (R)-2-amino-2-(1-(2-(2′-amino-4-chloro-[1,1′-biphenyl]-2-yl)ethyl)piperidin-4-yl)-1-(4-(2-ethoxy-6-fluorobenzyl)piperazin-1-yl)ethan-1-one] was tested. Which “EC99, mexB (PA), AZT” value (mexB (PA) strain) did it give?
A: S (EC99≤12.5 μM)

Q: And the “EC99, mexB (PA), LVFX” value (mexB (PA) strain)?
A: S (EC99≤12.5 μM)

Q: What about the “EC99, mexB (PA), TC” value (mexB (PA) strain) of the same compound?
A: A (12.5 μM<EC99≤25 μM)

Q: What about the “EC99, S-3769 strain, AMK” value (S-3769 strain) of the same compound?
A: A (12.5 μM<EC99≤25 μM)

Q: And the “EC99, S-3769 strain, GM” value (S-3769 strain)?
A: S (EC99≤12.5 μM)

Q: For `CCOc1cccc(F)c1CN1CCN(C(=O)[C@H](N)C2CCN(CCc3cc(Cl)ccc3-c3cccc(N)c3)CC2)CC1` [Example 99, Hydrobromide of (R)-2-amino-2-(1-(2-(3′-amino-4-chloro-[1,1′-biphenyl]-2-yl)ethyl)piperidin-4-yl)-1-(4-(2-ethoxy-6-fluorobenzyl)piperazin-1-yl)ethan-1-one], which “EC99, mexB (PA), AZT” value (mexB (PA) strain) is on record?
A: B (25 μM<EC99≤100 μM)

Q: What about the “EC99, mexB (PA), LVFX” value (mexB (PA) strain) of the same compound?
A: A (12.5 μM<EC99≤25 μM)

Q: What about the “EC99, mexB (PA), TC” value (mexB (PA) strain) of the same compound?
A: A (12.5 μM<EC99≤25 μM)

Q: And the “EC99, S-3769 strain, AMK” value (S-3769 strain)?
A: S (EC99≤12.5 μM)

Q: And the “EC99, S-3769 strain, GM” value (S-3769 strain)?
A: S (EC99≤12.5 μM)
